Experiment [1] concerns healthy male volunteers. Put plainly: Anti-fatigue test for cyclohexenone of Antrodia camphorata (fatigue indexes overall). The experiment is classed as in vivo, human. To be noted: after exhaustive exercising at 80% VO2max, indexes CPK, lactic acid, glucose, ammonia, free fatty acid. As for the experimental part: (§1) The present invention is based on supplementing cyclohexenone of Antrodia camphorata or placebo with no cyclohexenone of Antrodia camphorata to the subjects. The subjects were tested for the anti-fatigue function after supplementing cyclohexenone of Antrodia camphorata by measuring the amounts of fatigue indexes such as CPK, lactic acid, glucose, ammonia and free fatty acid before and after exhaustive exercise load at 80% VO2max.
Subjects were randomized to receive either cyclohexenone of Antrodia camphorata or placebo. Placebo contained substances such as cornstarch but no cyclohexenone of Antrodia camphorata. A double-blind, cross-over method was performed in this study where neither the evaluator nor the subject knew the content of the test substances. Based on rules of order balance, each subject have to receive the following tests: relaxing and receiving placebo (PR), exercising and receiving placebo (PE), relaxing and receiving cyclohexenone of Antrodia camphorata (DR), and exercising and receiving cyclohexenone of Antrodia camphorata (DE). […] The exercise was performed on a treadmill with the load intensity at the measured 80% VO2max (7.61±1.87) until exhausted. […] The fatigue indexes such as CPK, lactic acid, glucose, ammonia and free fatty acid were analyzed accordingly. […]

Experiment [2] relates to healthy male volunteers. Put plainly: Free fatty acid levels before/after exhaustive exercise at 80% VO2max. To be noted: for levels of free fatty acid: plasma, Mean, n = 15; for effect of supplementation after exercise on metabolism of free fatty acid: exhaustive exercise at 80% VO2max, versus placebo. The experiment is classed as in vivo, human. The procedure:
as §1
Subjects were randomized to receive either cyclohexenone of Antrodia camphorata or placebo. Placebo contained substances such as cornstarch but no cyclohexenone of Antrodia camphorata. A double-blind, cross-over method was performed in this study where neither the evaluator nor the subject knew the content of the test substances. Based on rules of order balance, each subject have to receive the following tests: relaxing and receiving placebo (PR), exercising and receiving placebo (PE), relaxing and receiving cyclohexenone of Antrodia camphorata (DR), and exercising and receiving cyclohexenone of Antrodia camphorata (DE). Each test was carried out for one week, and took one week off before the next test until all 4 tests were performed in each subject. The exercise was performed on a treadmill with the load intensity at the measured 80% VO2max (7.61±1.87) until exhausted. Subjects received cyclohexenone of Antrodia camphorata or placebo after exercise in the amount of 0.2 g/kg body weight per day. […] Blood was collected in anticoagulant (such as EDTA) containing collection tubes, and was centrifuged at 3000 g. for 10 min to collect the plasma. The fatigue indexes such as CPK, lactic acid, glucose, ammonia and free fatty acid were analyzed accordingly. The physiological and biochemical changes before and after exercise with different supplements were compared and shown as values of mean and standard error (Mean±SEM). […] The details for the biochemical analysis and results are described below:
The measurement of free fatty acid level was performed based on enzyme function and spectrophotometric theory. Acyl CoA synthetase and acyl CoA oxidase were added into a defined amount of plasma for reaction. A purple product was formed through activities of peroxidase. The reactions are shown below:
The absorbance at 550 nm was measured to obtain the concentration of free fatty acid.

For `COC1=C(OC)C(O)C(C/C=C(\C)CC/C=C(\C)CCC=C(C)C)C(C)C1=O` (stereo not drawn) [cyclohexenone, 4-hydroxy-2,3-dimethoxy-6-methyl-5(3,7,11-trimethyl-dodeca-2,6,10-trienyl)-cyclohex-2-enone], the entries for the “anti-fatigue function (physiological fatigue after exercise)” value with healthy male volunteers [1] (listed as 4-hydroxy-2,3-dimethoxy-6-methyl-5(3,7,11-trimethyl-dodecca-2,6,10-trienyl)-cycl) and with healthy male volunteers [1] (listed as cyclohexenone from Antrodia camphorea) were “can be used to delay physiological fatigue after exercise” and “delays physiological fatigue”, respectively. The levels of free fatty acid with healthy male volunteers [2] (Relax (DR), Post-exercise 0 h) was determined as 0.33 mM; in the experiment with healthy male volunteers [2] (Relax (DR), Post-exercise 0.5 h) it was 0.34 mM; in the experiment on healthy male volunteers [2] (Relax (DR), Post-exercise 1 h), 0.3 mM; with healthy male volunteers [2] (Relax (DR), Post-exercise 2 h), 0.23 mM; in the experiment with healthy male volunteers [2] (Relax (DR), Post-exercise 24 h), 0.28 mM; in the experiment on healthy male volunteers [2] (Relax (DR), Post-exercise 48 h) it was 0.29 mM. Also, the levels of free fatty acid in the experiment with healthy male volunteers [2] (Relax (DR), Post-exercise 72 h) was 0.31 mM; in the experiment with healthy male volunteers [2] (Relax (DR), Post-exercise 120 h), 0.48 mM; with healthy male volunteers [2] (Relax (DR), Post-exercise 168 h) it was 0.28 mM; in the experiment on healthy male volunteers [2] (Relax (DR), Prior to exercise), 0.38 mM; in the experiment with healthy male volunteers [2] (exercise (DE), Post-exercise 0 h) it was 0.91 mM; with healthy male volunteers [2] (exercise (DE), Post-exercise 0.5 h) it was 0.6 mM. Besides, the levels of free fatty acid in the experiment with healthy male volunteers [2] (exercise (DE), Post-exercise 1 h) was 0.61 mM; with healthy male volunteers [2] (exercise (DE), Post-exercise 2 h), 0.59 mM; with healthy male volunteers [2] (exercise (DE), Post-exercise 24 h), 0.41 mM; with healthy male volunteers [2] (exercise (DE), Post-exercise 48 h), 0.28 mM; in the experiment with healthy male volunteers [2] (exercise (DE), Post-exercise 72 h), 0.44 mM; in the experiment on healthy male volunteers [2] (exercise (DE), Post-exercise 120 h), 0.3 mM. For the same molecule, the levels of free fatty acid in the experiment with healthy male volunteers [2] (exercise (DE), Post-exercise 168 h) is 0.32 mM; in the experiment with healthy male volunteers [2] (exercise (DE), Prior to exercise) it was 0.34 mM. Further, the “effect of supplementation after exercise on metabolism of free fatty acid” value with healthy male volunteers [2] (listed as cyclohexenone from Antrodia camphorata) is on record as “did not affect the metabolism of free fatty acid”; with healthy male volunteers [2] (listed as cyclohexenone of Antrodia camphorata), “no significant difference”.

Values taken from patent US7468392B1, “Anti-fatigue cyclohexenone compounds from antrodia camphorata” (Golden Biotechnology Corporation, priority 2007, dated 2008).
